Source: paper PMC10866072, “Design, synthesis, molecular modelling and biological evaluation of novel 6-amino-5-cyano-2-thiopyrimidine derivatives as potent anticancer agents against leukemia and apoptotic inducers” (Journal of Enzyme Inhibition and Medicinal Chemistry, 2024)

Columns and labels:
SK-OV-3 = type: cell-based; conditions: Homo sapiens, one dose 10^-5 M, 48 h
M14 = type: cell-based; conditions: Homo sapiens, one dose 10^-5 M, 48 h
HT29 = type: cell-based; conditions: Homo sapiens, HT-29, one dose 10^-5 M, 48 h
MALME-3M = type: cell-based; conditions: Homo sapiens, one dose 10^-5 M, 48 h
HCC-2998 = type: cell-based; conditions: Homo sapiens, one dose 10^-5 M, 48 h
EKVX = type: cell-based; conditions: Homo sapiens, one dose 10^-5 M, 48 h
SF-539 = type: cell-based; conditions: Homo sapiens, one dose 10^-5 M, 48 h
T-47D = type: cell-based; conditions: Homo sapiens, T47D, one dose 10^-5 M, 48 h, read-out: % growth
HCT-15 = type: cell-based; conditions: Homo sapiens, one dose 10^-5 M, 48 h, read-out: % growth
CCRF-CEM = type: cell-based; conditions: Homo sapiens, one dose 10^-5 M, 48 h
SNB-19 = type: cell-based; conditions: Homo sapiens, one dose 10^-5 M, 48 h, read-out: % growth
KM12 = type: cell-based; conditions: Homo sapiens, one dose 10^-5 M, 48 h
SK-MEL-5 = type: cell-based; conditions: Homo sapiens, one dose 10^-5 M, 48 h, read-out: % growth
SF-268 = type: cell-based; conditions: Homo sapiens, one dose 10^-5 M, 48 h, read-out: % growth
A549/ATCC = type: cell-based; conditions: Homo sapiens, one dose 10^-5 M, 48 h
RPMI-8226 = type: cell-based; conditions: Homo sapiens, one dose 10^-5 M, 48 h
OVCAR-3 = type: cell-based; conditions: Homo sapiens, one dose 10^-5 M, 48 h
K-562 = type: cell-based; conditions: Homo sapiens, K562, one dose 10^-5 M, 48 h
OVCAR-4 = type: cell-based; conditions: Homo sapiens, one dose 10^-5 M, 48 h
MOLT-4 = type: cell-based; conditions: Homo sapiens, one dose 10^-5 M, 48 h, read-out: % growth
U251 = type: cell-based; conditions: Homo sapiens, U-251, one dose 10^-5 M, 48 h
HCT-116 = type: cell-based; conditions: Homo sapiens, one dose 10^-5 M, 48 h, read-out: % growth
UACC-257 = type: cell-based; conditions: Homo sapiens, one dose 10^-5 M, 48 h
SNB-75 = type: cell-based; conditions: Homo sapiens, one dose 10^-5 M, 48 h
OVCAR-5 = type: cell-based; conditions: Homo sapiens, one dose 10^-5 M, 48 h
HL-60(TB) = type: cell-based; conditions: Homo sapiens, one dose 10^-5 M, 48 h
786-0 = type: cell-based; conditions: Homo sapiens, one dose 10^-5 M, 48 h
UO-31 = type: cell-based; conditions: Homo sapiens, UO-31, 48 h, one dose 10^-5 M, 48 h
CAKI-1 = type: cell-based; conditions: Homo sapiens, CAKI-1, 48 h, one dose 10^-5 M, 48 h
NCI-H23 = type: cell-based; conditions: Homo sapiens, one dose 10^-5 M, 48 h, read-out: % growth
RXF 393 = type: cell-based; conditions: Homo sapiens, RXF 393, 48 h, one dose 10^-5 M, 48 h, read-out: % growth
TK-10 = type: cell-based; conditions: Homo sapiens, one dose 10^-5 M, 48 h
HOP-62 = type: cell-based; conditions: Homo sapiens, one dose 10^-5 M, 48 h
HOP-92 = type: cell-based; conditions: Homo sapiens, one dose 10^-5 M, 48 h
IGROV1 = type: cell-based; conditions: Homo sapiens, IGROV-1, one dose 10^-5 M, 48 h, read-out: % growth
MCF7 = type: cell-based; conditions: Homo sapiens, one dose 10^-5 M, 48 h, read-out: % growth
HS 578T = type: cell-based; conditions: Homo sapiens; one dose 10^-5 M, 48 h; HS 578T; read-out: % growth
NCI-H226 = type: cell-based; conditions: Homo sapiens, one dose 10^-5 M, 48 h
SN12C = type: cell-based, human; conditions: Homo sapiens, one dose 10^-5 M, 48 h
DU-145 = type: cell-based; conditions: Homo sapiens, one dose 10^-5 M, 48 h
SF-295 = type: cell-based; conditions: Homo sapiens, one dose 10^-5 M, 48 h
NCI-H522 = type: cell-based; conditions: Homo sapiens, one dose 10^-5 M, 48 h
[1] = test system: full NCI 60 cell lines panel; conditions: for activity at 10 µM: Homo sapiens, 60 cell, 48 h, read-out: Mean % growth; for activity on all 60 cancer cell lines tested (in words): one dose
SR = type: cell-based; conditions: Homo sapiens, one dose 10^-5 M, 48 h
MDA-MB-468 = type: cell-based; conditions: Homo sapiens, one dose 10^-5 M, 48 h
PC-3 = type: cell-based; conditions: Homo sapiens, one dose 10^-5 M, 48 h
LOX IMVI = type: cell-based; conditions: Homo sapiens, one dose 10^-5 M, 48 h, read-out: % growth
OVCAR-8 = type: cell-based; conditions: Homo sapiens, one dose 10^-5 M, 48 h
SW-620 = type: cell-based; conditions: Homo sapiens, one dose 10^-5 M, 48 h
MDA-MB-435 = type: cell-based; conditions: Homo sapiens, one dose 10^-5 M, 48 h, read-out: % growth
SK-MEL-2 = type: cell-based; conditions: Homo sapiens, one dose 10^-5 M, 48 h
MDA-MB-231/ATCC = type: cell-based; conditions: Homo sapiens, one dose 10^-5 M, 48 h
SK-MEL-28 = type: cell-based; conditions: Homo sapiens, one dose 10^-5 M, 48 h
A498 = type: cell-based; conditions: Homo sapiens, one dose 10^-5 M, 48 h
ACHN = type: cell-based; conditions: Homo sapiens, one dose 10^-5 M, 48 h
NCI-H460 = type: cell-based; conditions: Homo sapiens, one dose 10^-5 M, 48 h, read-out: % growth
UACC-62 = type: cell-based; conditions: Homo sapiens, one dose 10^-5 M, 48 h

N=C(NN=Cc1ccc([N+](=O)[O-])cc1)c1c(N)nc(S)nc1-c1ccc(Cl)cc1 [Compound 4i, 4-amino-6–(4-chlorophenyl)-2-mercapto-N'-[(4-nitrophenyl)methylene] pyrimidine-5-carboximidohydrazide]
% growth at 10 µM (SK-OV-3): 103%
% growth at 10 µM (M14): 107%
% growth at 10 µM (HT29): 101%
% growth at 10 µM (MALME-3M): 96.9%
% growth at 10 µM (HCC-2998): 104%
% cell growth at 10 µM (EKVX): 95.8%
% growth at 10 µM (SF-539): 96.7%
activity at 10 µM (T-47D): 90.5%
activity at 10 µM (HCT-15): 95.2%
% cell growth at 10 µM (CCRF-CEM): 88.6%
activity at 10 µM (SNB-19): 94.2%
% growth at 10 µM (KM12): 99.2%
activity at 10 µM (SK-MEL-5): 101%
activity at 10 µM (SF-268): 117%
% growth at 10 µM (A549/ATCC): 103%
% growth at 10 µM (RPMI-8226): 89%
% growth at 10 µM (OVCAR-3): 119%
% growth at 10 µM (K-562): 96.3%
% growth at 10 µM (OVCAR-4): 98.6%
activity at 10 µM (MOLT-4): 105%
% growth at 10 µM (U251): 98.8%
activity at 10 µM (HCT-116): 108%
percent cell growth at 10 µM (UACC-257): 96.5%
% growth at 10 µM (SNB-75): 115%
percent cell growth at 10 µM (OVCAR-5): 101%
% growth at 10 µM (HL-60(TB)): 97.3%
% growth at 10 µM (786-0): 103%
% cell growth at 10 µM (UO-31): 91%
% growth at 10 µM (CAKI-1): 89.6%
activity at 10 µM (NCI-H23): 106%
activity at 10 µM (RXF 393): 108%
% cell growth at 10 µM (TK-10): 112%
% growth at 10 µM (HOP-62): 95%
% growth at 10 µM (HOP-92): 97%
activity at 10 µM (IGROV1): 99.4%
activity at 10 µM (MCF7): 90.7%
activity at 10 µM (HS 578T): 118%
% growth at 10 µM (NCI-H226): 150%
% growth at 10 µM (SN12C): 92.6%
% growth at 10 µM (DU-145): 108%
% cell growth at 10 µM (SF-295): 96.7%
% growth at 10 µM (NCI-H522): 92.9%
activity at 10 µM [1]: 101%
activity on all 60 cancer cell lines tested (in words) [1]: weak activity
percent cell growth at 10 µM (SR): 96.5%
percent cell growth at 10 µM (MDA-MB-468): 114%
percent cell growth at 10 µM (PC-3): 90.1%
activity at 10 µM (LOX IMVI): 106%
% growth of cells at 10 µM (OVCAR-8): 105%
% growth at 10 µM (SW-620): 102%
activity at 10 µM (MDA-MB-435): 101%
% growth at 10 µM (SK-MEL-2): 108%
% growth at 10 µM (MDA-MB-231/ATCC): 96%
% cell growth at 10 µM (SK-MEL-28): 101%
% growth at 10 µM (A498): 114%
% growth at 10 µM (ACHN): 92.1%
activity at 10 µM (NCI-H460): 104%
% growth at 10 µM (UACC-62): 94.6%

COc1ccc(C=NNC(=N)c2c(N)nc(S)nc2-c2ccc(Cl)cc2)cc1 [Compound 4j, 4-amino-6–(4-chlorophenyl)-2-mercapto-N'-[(4-methoxyphenyl)methylene] pyrimidine-5-carboximidohydrazide]
% growth at 10 µM (SK-OV-3): 93.7%
% growth at 10 µM (M14): 109%
% growth at 10 µM (HT29): 105%
% growth at 10 µM (MALME-3M): 105%
% growth at 10 µM (HCC-2998): 113%
% cell growth at 10 µM (EKVX): 94.8%
% growth at 10 µM (SF-539): 101%
activity at 10 µM (T-47D): 86.8%
activity at 10 µM (HCT-15): 95.6%
% cell growth at 10 µM (CCRF-CEM): 89.7%
activity at 10 µM (SNB-19): 90.5%
% growth at 10 µM (KM12): 100%
activity at 10 µM (SK-MEL-5): 102%
activity at 10 µM (SF-268): 113%
% growth at 10 µM (A549/ATCC): 107%
% growth at 10 µM (RPMI-8226): 91.2%
% growth at 10 µM (OVCAR-3): 110%
% growth at 10 µM (K-562): 95%
% growth at 10 µM (OVCAR-4): 99.6%
activity at 10 µM (MOLT-4): 101%
% growth at 10 µM (U251): 107%
activity at 10 µM (HCT-116): 107%
percent cell growth at 10 µM (UACC-257): 110%
% growth at 10 µM (SNB-75): 103%
percent cell growth at 10 µM (OVCAR-5): 102%
% growth at 10 µM (HL-60(TB)): 111%
% growth at 10 µM (786-0): 104%
% cell growth at 10 µM (UO-31): 77.5%
% growth at 10 µM (CAKI-1): 91.9%
activity at 10 µM (NCI-H23): 103%
activity at 10 µM (RXF 393): 124%
% cell growth at 10 µM (TK-10): 143%
% growth at 10 µM (HOP-62): 90.3%
% growth at 10 µM (HOP-92): 107%
activity at 10 µM (IGROV1): 91.5%
activity at 10 µM (MCF7): 86.6%
activity at 10 µM (HS 578T): 107%
% growth at 10 µM (NCI-H226): 125%
% growth at 10 µM (SN12C): 93.6%
% growth at 10 µM (DU-145): 118%
% cell growth at 10 µM (SF-295): 97.5%
% growth at 10 µM (NCI-H522): 101%
activity at 10 µM [1]: 103%
activity on all 60 cancer cell lines tested (in words) [1]: weak activity
percent cell growth at 10 µM (SR): 97.3%
percent cell growth at 10 µM (MDA-MB-468): 114%
percent cell growth at 10 µM (PC-3): 82.6%
activity at 10 µM (LOX IMVI): 104%
% growth of cells at 10 µM (OVCAR-8): 101%
% growth at 10 µM (SW-620): 112%
activity at 10 µM (MDA-MB-435): 104%
% growth at 10 µM (SK-MEL-2): 110%
% growth at 10 µM (MDA-MB-231/ATCC): 91.3%
% cell growth at 10 µM (SK-MEL-28): 111%
% growth at 10 µM (A498): 125%
% growth at 10 µM (ACHN): 97.4%
activity at 10 µM (NCI-H460): 119%
% growth at 10 µM (UACC-62): 92.9%
